Measurements published in Sander's compilation of Henry's law constants (doi:10.1016/s0378-4347(00)82845-5).

Experiment: Henry solubility constant Hcp at 310 K (mol/(m3 Pa))
Conditions: reference: Guitart et al. (1989)

Row | SMILES | Henry solubility constant Hcp at 310 K
1 | CC(Cl)(Cl)Cl [1,1,1-trichloroethane] | 0.00032
2 | FC(F)(F)C(Cl)Br (configuration not stated) [1-bromo-1-chloro-2,2,2-trifluoroethane] | 0.00028
3 | CC(C)CC(C)(C)C [2,2,4-trimethylpentane] | 4.6e-06
4 | FC(F)OC(F)(F)C(F)Cl (configuration not stated) [2-chloro-1,1,2-trifluoroethyl difluoromethyl ether] | 0.00027
5 | c1ccccc1 [benzene] | 0.002
6 | CCCC [butane] | 8e-06
7 | C1CCCCC1 [cyclohexane] | 3.4e-05
8 | C1CC1 [cyclopropane] | 7.8e-05
9 | ClCCl [dichloromethane] | 0.0034
10 | CCOCC [diethyl ether] | 0.0063
11 | CC(C)OC(C)C [diisopropyl ether] | 0.0028
12 | CCOC(C)=O [ethyl ethanoate] | 0.043
13 | CCCCCCC [heptane] | 6e-06
14 | CCCCCC [hexane] | 6.7e-06
15 | CC(C)=O [propanone] | 0.12
16 | FS(F)(F)(F)(F)F [sulfur hexafluoride] | 1.4e-06
17 | ClC=C(Cl)Cl [trichloroethene] | 0.00055
